This note sets out measurements from patent publication US20250302846A1, “ANTIBIOTIC COMPOSITION AND METHODS OF USE THEREOF” (THE REGENTS OF THE UNIVERSITY OF COLORADO A BODY CORPORATE, priority 2022, published 2025).

The structures appear in SMILES notation. ≈ marks a conversion by molar mass, not a printed value. Where two headings read alike, the source gives them in different places.

One data set deals with staphylococcal strains. Kind of data set: MIC95 quoted for staphylococcal persister and biofilm experiments. The following applies: read-out: MIC95. The data set is classed as cell-based. The method, then:
A-D) Overnight cultures of the indicated strains were treated at time 0 with DMSO, ciprofloxacin [4 μg/mL], vancomycin [10 μg/mL], or the corresponding MIC95 concentration of D66 (1x MIC95=130 μM, 49 μg/mL). Cultures were plated for enumeration of CFU at time points indicated. Mean and SEM of three biological replicates. E) RAW 264.7 macrophage-like cells and HeLa cells were infected with S. aureus USA300, at MOIs of 0.5 and 2.5, respectively. Cells were treated two hours after infection with DMSO (gray circle on Y axis), or dilutions of D66 from 40 μM. After 8 hours of infection, cells were lysed and plated for enumeration of CFU. Mean and SEM of biological duplicates performed with technical triplicates each with six dilutions of D66. The IC50 value that was calculatable is indicated.
Biofilm formation was monitored after 18 hours in TSB with subinhibitory concentrations of DMSO, rifampin (1x MIC95=0.05 μg/mL), vancomycin (1x MIC95=1 μg/mL), or D66 (1x MIC95=130 μM). A-D) Crystal violet staining for accumulated biofilm mass measured at A595. Mean and […]

A further data set relates to S. Typhimurium. Kind of data set: Propidium iodide membrane barrier assay. The following applies: LB with PMB [0.5 μg/mL]; D66 at 2x MIC95; SDS [0.005%] positive control. The format is cell-based. Here is the method:
FIG. 3A-F. D66 rapidly perturbs the bacterial cytoplasmic membrane with minor disruption of barrier function. Mid-log phase S. Typhimurium cells grown in LB with 0.5 μg/mL PMB were used for all experiments. A) Cell membrane potential was monitored with the fluorescent dye DiSC3 (5). Cells were treated at time 0 with DMSO, JD1 [70 μM], or D66. Data were normalized to DMSO at time 0 and corrected for the quenching effect of D66 (FIG. 6A, B) B) Cell membrane permeability was monitored by PI fluorescence. Cells were treated at time 0 with DMSO, SDS [0.005%] or D66. Samples were processed at the time points shown. A one-way ANOVA with a Dunnet's multiple comparison test, * P<0.005. C-F) Growth curves and kill-curves of cells treated at time 0 with either DMSO or D66. Culture aliquots were monitored for OD600 (C, E) or plated for enumeration of CFU (D, F). Data are presented as fold change. Mean and SEM of three biological replicates with technical triplicates are shown in all panels.
Propidium iodide membrane barrier assays: Compound, DMSO, or SDS was added to mid-log phase cells to the desired concentration, and cultures were sampled at 0, 10, 15, 20, 30 and 45 minutes. Five minutes before harvesting, PI [10 μg/mL] (Life Technologies) was added. Cells were pelleted, washed twice, resuspended in PBS, and monitored (ex535/em617 nm) using a BioTek Synergy H1 plate reader.

Another data set deals with RAW 264.7 cells. Kind of data set: Mitochondrial membrane potential with TMRM. The following applies: uninfected RAW 264.7 cells; D66 first two hours; CCCP 7 μM.

With `CN[C@H](CC(C)C)C(=O)N[C@H]1C(=O)N[C@@H](CC(N)=O)C(=O)N[C@H]2C(=O)N[C@H]3C(=O)N[C@H](C(=O)N[C@H](C(=O)O)c4cc(O)cc(O)c4-c4cc3ccc4O)[C@H](O)c3ccc(c(Cl)c3)Oc3cc2cc(c3O[C@@H]2O[C@H](CO)[C@@H](O)[C@H](O)[C@H]2O[C@H]2C[C@](C)(N)[C@H](O)[C@H](C)O2)Oc2ccc(cc2Cl)[C@H]1O` [vancomycin, reference compound], in the data set with staphylococcal strains, the MIC worked out at 1 µg/mL (≈ 0.69 µM).

With `CCCCCCCCCCCCOS(=O)(=O)[O-].[Na+]` [SDS, reference compound], the “time of treatment after which PI signal increased” value in the data set with S. Typhimurium amounted to 10 min.

`N#CC(C#N)=NNc1cccc(Cl)c1` [CCCP, carbonyl cyanide m-chlorophenyl hydrazone, reference compound]: the “TMRM fluorescence (mitochondrial membrane potential)” value in the data set with RAW 264.7 cells is given as “decreased TMRM fluorescence”.

`CO[C@H]1/C=C/O[C@@]2(C)Oc3c(C)c(O)c4c(O)c(c(/C=N/N5CCN(C)CC5)c(O)c4c3C2=O)NC(=O)/C(C)=C\C=C\[C@H](C)[C@H](O)[C@@H](C)[C@@H](O)[C@@H](C)[C@H](OC(C)=O)[C@@H]1C` [rifampin, reference compound]: the MIC in the data set on staphylococcal strains (staphylococcal strains) amounted to 0.05 µg/mL (≈ 0.0608 µM).
